Experimental data published in patent US20260102417A1, “COMPOSITIONS FOR THE TREATMENT AND PREVENTION OF CANCER” (Keyzell Holding S.L., priority 2022, published 2026).
Entries after “also recorded” stand apart in the source; their conditions may differ.

Legend:
[1] = test system: B16F10 cells (mouse melanoma model); assay: Mouse melanoma model: B16F10 cells subcutaneously in C57BL/6J female mice; assay type: in vivo; settings: FIG. 11, treatments administered for 7-9 days, 30 mg/kg per Table 2
Source text: For in vivo studies, the drugs fosaprepitant dimeglumine salt (CAS No 265121-04-8, Selleck Chemicals), Cerenia® (Maropitant citrate injectable solution; Zoetis US), InVivoMAb Anti-mouse CTLA-4 (CD152) (BE0032, Bio cell), InVivoMAb Anti-mouse PD-1 (CD279) (BE0146, Bio cell) and Rat IgG2a k isotype (ref BE0089) were used.
B16F10 cells (1×10^6 per mouse) were subcutaneously injected into the right flank of C57BL/6J female mice (Charles River) with matrigel (Matrigel Membrane Matrix, Corning) at 50% v/v. Tumour growth was evaluated every 2/3 days. Animal vital parameters were monitored daily. When the tumours reached an average volume of 100-150 mm^3, mice were randomised into cohorts of 6 animals and treatments were administered for 7-9 days. Groups and regimens for each experiment are described in Table 2. Animals of the control group were dosed with equal volume of vehicle. Animals were euthanized according to institutional guidelines and tumour samples were excised. Tumours were snap-frozen in OCT medium (Sakura Tissue Tek) or fixed in PFA and embedded in paraffin. Several internal organs were also excised and fixed in PFA for future studies.

[2] = test system: cell lines of Table 1 (3LL, 4T1, B16F10, CT26WT, PTEN, RT112, MCF7 cells); assay: MTT cell viability (cytotoxicity) assay in tumour cell lines, FIGS. 1-9; assay type: cell-based, mouse, rat and human; settings: cell viability after 24 hours or 48 hours
Experimental: 21 Cell lines of three different species (mouse, rat and human) were used in this study (Table 1). All of them were maintained in culture in their respective culture media (Gibco, Thermo Fisher Scientific) supplemented with 10% fetal bovine serum (FBS) (Gibco, Thermo Fisher Scientific), 2 mM L-Glutamine (Sigma-Aldrich, Merk), and Peni-Strep (50 U/ml and […]; Gibco, Thermo Fisher Scientific) in a humidified incubator at 37° C. and 5% CO2.
The cytotoxicity of the drugs in culture was evaluated using the 3-(4,5-Dimethyl-2-thiazolyl)-2,5-diphenyl-2H-tetrazolium bromide (MTT) reduction assay. The assay assesses cell viability through the indirect measurement of the activity of reductases that convert yellow soluble MTT into purple insoluble formazan salts. As MTT can only be reduced when these enzymes are active, the reaction is used as an indicator of the cell metabolic competence and, therefore, of viability.
A variable number of cells (depending on the cell line) were seeded in 96 multi-well plates and grown during 24 Hours Cell Viability. The following day the culture medium was aspirated and fresh culture medium with the drug dissolved was added to the wells. After 24 Hours Cell Viability or 48 Hours Cell Viability cell viability was measurement by adding 10 μl of a 5 mg/ml MTT solution (M5655; Sigma-Aldrich) and 100 μl of a Hcl 0.01M-SDS 10% solution 4 hours later. After 24 Hours Cell Viability, the absorbance was measured at 595 nm, using a multi-well plate reader (iMark, Bio-rad).

[3] = test system: osteoclastic osteosarcoma clinical stage IV; assay: Compassionate use of aprepitant in a patient with osteosarcoma; assay type: in vivo, human
Experimental: On Dec. 9, 2022 the patient was approved for compassionate use of aprepitant at a dose of 4200 mg orally divided into 3 doses (the total daily dose being 4200 mg) along with ifosfamide and etoposide as a fourth line of treatment. Close clinical surveillance of the patient was initiated to monitor quality of life, functional status and manifestation of adverse reactions to treatment, as well as periodic serological surveillance and measurement of response to treatment by imaging studies using the RECIST 1.1 criteria.

[4] = test system: a range of provoked cancers and tumours; settings: immunocompromised nude mice; 10-80 mg/kg per day, up to 28 days; cited from earlier work
[5] = test system: osteosarcoma cell line, MG-63; settings: immunocompromised nude mice; injected weekly at 80 mg/kg; cited from earlier work
[6] = Feb. 6, 2023, aprepitant 4200 mg per day with ifosfamide and etoposide
[7] = PET/CT Jan. 9, 2023, aprepitant 4200 mg per day with ifosfamide and etoposide
[8] = aprepitant 4200 mg per day with ifosfamide and etoposide

COc1ccc(C(C)(C)C)cc1CN[C@H]1C2CCN(CC2)[C@H]1C(c1ccccc1)c1ccccc1 [Maropitant]
tumoral growth [1]: reduces tumoral growth

C[C@@H](O[C@H]1OCCN(Cc2nc(=O)[nH][nH]2)[C@H]1c1ccc(F)cc1)c1cc(C(F)(F)F)cc(C(F)(F)F)c1 [aprepitant, 5-[[(2R, 3S)-2-[(1R)-1-[3,5-bis(trifluoromethyl)phenyl]ethoxy]-3-(4-fluorophenyl)-4-morpholinyl]methyl]-1,2-dihydro3H-1,2,4-triazol-3-one]
anti-cancer effects in vitro (cell viability, MTT) [2]: exhibited anti-cancer effects
left upper nodule [3, 6]: 21 mm
pulmonary nodule in left lower lobe [3, 6]: 16.5 mm
pulmonary nodule in left lower nodule [3, 6]: 10 mm
size of bilateral pulmonary nodules and masses of right predominance [3, 6]: slight increase in the size
largest of two basal nodules, left lung [3, 7]: 20 mm
nodule in the left upper lower lobe [3, 7]: 16 mm
nodules in the posterior apical segment, left lung [3, 7]: 21 mm
diameter of solid nodule, right pleura, hilar in the middle lobe ([3]; PET/CT Jan. 9, 2023, aprepitant 4200 mg per day with ifosfamide and etoposide since Dec. 9, 2022): 42 mm
response according to RECIST 1.1 criteria, clinical and serological surveillance ([3]; aprepitant 4200 mg per day orally in 3 doses with ifosfamide and etoposide, from Dec. 9, 2022 to Feb. 15, 2023): stable disease-like response
Karnofsky [3, 8]: 70%
impact on the patient compared with the expected course of the disease [3, 8]: positive impact
symptomatology by the Edmonton scale [3, 8]: no increase in symptoms
ECOG functional status ([3]; aprepitant 4200 mg per day with ifosfamide and etoposide, since the start of follow-up): 1
EORTC QLQ-C30 overall score (quality of life) ([3]; aprepitant 4200 mg per day with ifosfamide and etoposide, since the start of therapy): 50%
tolerance ([3]; aprepitant 4200 mg per day with ifosfamide and etoposide, with supportive treatment): adequate tolerance
effect on tumour size / growth [4]: somewhat effective; also recorded: slows the growth of the tumours without any net reduction in the tumour sizes

CNC[C@H](O)[C@@H](O)[C@H](O)[C@H](O)CO.CNC[C@H](O)[C@@H](O)[C@H](O)[C@H](O)CO.C[C@@H](O[C@H]1OCCN(Cc2nc(=O)n(P(=O)(O)O)[nH]2)[C@H]1c1ccc(F)cc1)c1cc(C(F)(F)F)cc(C(F)(F)F)c1 [fosaprepitant-dimeglumine, 1-Deoxy-1-(methylamino)-D-glucitol[3-[[(2R,3S)-2-[(1R)-1-[3,5-bis(trifluoromethyl)phenyl]ethoxy]-3-(4-fluorophenyl)-4-morpholinyl]methyl]-2,5-dihydro-5-oxo-1H-1,2,4 triazol-1-yl]phosphonate (2:1) (salt)]
tumoral growth [1]: reduces tumoral growth

C[C@@H](O[C@H]1OCCN(Cc2nc(O)n(P(=O)(O)O)n2)[C@H]1c1ccc(F)cc1)c1cc(C(F)(F)F)cc(C(F)(F)F)c1 [fosaprepitant]
therapeutic efficacy against MG-63 xenograft [5]: some therapeutic efficacy
anti-cancer effects in vitro (cell viability, MTT) [2]: exhibited anti-cancer effects

Cc1ccccc1-c1cc(N2CCN(C)CC2)ncc1N(C)C(=O)C(C)(C)c1cc(C(F)(F)F)cc(C(F)(F)F)c1 [netupitant]
anti-cancer effects in vitro (cell viability, MTT) [2]: exhibited anti-cancer effects
